From US20040132642A1, “Methods of inhibiting metastasis or growth of a tumor cell” (Government of the U.S.A., represented by the Secretary, …, priority 2002, published 2004)

Experiments:
[1] = test system: CXCR4-B16 cells; experiment: adhesion of CXCR4-B16 cells to resting DMEC in parallel plate flow chamber; type: cell-based, murine; conditions: DMEC exposed to 100 ng/ml chemokine for 15 min; 1.5 dynes/cm^2
Protocol: Prior to interaction with tumor cells, resting confluent DMEC or LMEC were exposed to 100 ng/ml of recombinant CXCL12 or CCL21 for 15 min at 20° C. as described (Cinamon et al., Nat. Immunol. 2: 515-22 (2001)). After unbound chemokine was washed away, calcein-AM-labeled (Molecular Probes, Eugene, Oreg.) CXCR4- or pLNCX2-B16 cells (2.5×10^5/ml in B16 medium) were injected at 1.5 dynes/cm^2 into a parallel plate flow chamber (Glycotech, Gaithersburg, Md.) containing confluent DMEC or LMEC. In some cases, tumor cells were treated with pertussis toxin (PTX, Calbiochem, San Diego, Calif.) at 100 ng/ml for 2 hours at 37° C. to block Gi-protein-coupled signaling. After two min, flow was stopped, which enabled B16 cells to interact with MEC in the absence of shear stress. After 5 min, shear was re-established at 1.5 dynes/cm^2 for up to 2 min in order to detach unbound cells; adherent cells were digitally photographed in 5-6 random fields (each field=1.18 mm^2) with excitation at 488 nm and emission at 513 nm using sufficient exposure time (˜1 s) to allow distinction between non-moving and moving cells (which appeared as dim streaks) (Fitzhugh et al. (2000), supra). Cells were then counted with the software program IPlab (Scanalytics, Fairfax, Va.). […]

[2] = test system: CXCR4-B16 cells; experiment: arrest of CXCR4-B16 cells on VCAM-1/Ig-coated plates under flow; type: cell-based, murine; conditions: CXCR4-B16 on plates co-coated with VCAM-1/Ig and 1 μg/ml chemokine; 1.5 dynes/cm^2
Protocol: Cell suspension plates (35 mm, Model # 430588, Corning Inc., NY) were coated with human VCAM-1/IgG chimera (1 μg/ml) overnight at 4° C. in Tris-buffered saline (Maki et al., Immunol. 169:2346-2353 (2002)). Plates were then briefly rinsed with PBS, co-coated with 1 μg/ml of CXCL12, CCL19, or no chemokine in PBS for 2 hr at 4° C., and blocked with 1% BSA/PBS for 1 hr at 4° C. Calcein-acetomethyl (AM)-labeled (Molecular Probes, Eugene, Oreg.) CXCR4-B16 or pLNCX2-B16 cells (2.5×10^5 cells/ml in cDMEM) were injected at 1.5 dynes/cm^2 into a parallel plate flow chamber (Glycotech, Gaithersburg, Md.) that had been placed over the adhesion molecule- and/or chemokine-coated suspension plate.
For dynamic assays on recombinant molecule-coated plates as well as on LMEC, tumor cells were introduced into the chamber under a constant shear stress of 1.5 dynes/cm^2 without allowing cells to settle at any time during the assay. Ten min after flow was initiated, arrested cells were digitally photographed (without flow being decreased) in 4-6 random fields (each field=1.18 mm^2) with excitation at 488 nm and emission at 513 nm using sufficient exposure time (˜1 s) to allow distinction between moving cells, which appeared as dim streaks, and stationary cells. Cells were then enumerated with the software program IPlab (Scanalytics, Fairfax, Va.). […]

[3] = test system: activated bone-marrow-derived dendritic cells; experiment: in vitro chemotaxis of dendritic cells to CXCL12; type: cell-based; conditions: T22 500 ng/ml; 200 ng/ml of CXCL12
[4] = test system: CXCR4-B16 cells; experiment: pulmonary metastasis after i.v. injection of CXCR4-B16 cells (lung luciferase assay); type: in vivo, mice; conditions: for effect on pulmonary metastasis: CXCR4-B16-injected mice; for effect on pulmonary metastasis / Average weight: 4 μg peptide i.p. daily; for Luciferase activity (RLU): lung, 4 μg peptide/mouse i.p. daily; for Luciferase activity (RLU) / Average weight: CXCR4-B16 cells i.v.; for Average weight: mass of the lungs; for Average Relative Luciferase Units: CXCR4-B16 i.v., 14-day assay
Protocol: (§1) Luciferase activity was measured using a Luciferase Reporter assay system (Promega, Madison, Wis.). Cultured cells were lysed with 100 μl of undiluted lysis buffer and then assayed in the presence of luciferin using a Thermo Labsystems MLX 96-well luminometer (Helsinki, Finland). Units are in arbitrary light units. For tissue assays, organs from each animal were homogenized in 1 ml of lysis buffer, of which 25 μl aliquots were then assayed in duplicate. Means of duplicates were used to represent the luciferase activity for a given tissue from a particular animal. Five to ten animals per experimental treatment group were used for typical experiments.
(§2) CXCR4- and pLNCX2-B16 cells in exponential growth phase were harvested by trypsinization and washed twice in PBS prior to injection. Cell viability was >95% as determined by trypan blue dye exclusion. For the footpad (i.e., subcutaneous) injection, B16 cells (4×10^5 cells in 20 μl PBS) were subcutaneously injected into the left footpads of C57BL/6 mice. Tumor growth was monitored three times per week by measurement of two maximum perpendicular tumor diameters. When tumors reached 5-7 mm in size, animals were euthanized prior to harvesting of lung and LN. Popliteal LN were removed by gently pulling skin (including the dermis and subcutaneous fat) above the popliteal fossa and carefully exposing the LN resting in the adipose tissue of the fossa with a pair of forceps. For intravenous injection, 4×10^5 CXCR4- or pLNCX2-B16 cells in 200 μl were injected into the tail veins of mice. T22 and ALA peptides in sterile PBS were administered via an intraperitoneal (i.p.) route using 4 μg peptide/mouse daily for the indicated duration of treatment. Experiments were performed 2-4 times each with similar trends.
To determine whether T22 would inhibit the CXCR4-mediated increase in metastasis, mice were injected intravenously with CXCR4-B16 and pLNCX2-B16 cells. Subgroups of CXCR4-B16 mice were treated daily with 4 μg of either T22 or ALA control peptide. CXCR4-B16 cells accumulated in greater numbers in the lung compared to pLNCX2-B16 cells (Table 4), confirming the results described in Example 2.
It has been shown that the CXCR4 inhibitory peptide, T22, blocked pulmonary metastasis of CXCR4-B16 cells when this CXCR4 inhibitor was used daily throughout the course of the 14-day metastastis assay (Murakami et al., Cancer Res. 62:7328-7334 (2002)). To determine if short-term treatment with T22 was also effective in blocking metastasis, the in vivo assay described in Murakami et al., Cancer Res. 62:7328-7334 (2002), was modified and the drug was only given for the first two days of the 14-day waiting period following i.v. injection of CXCR4-B16 and pLNCX2-B16 cells. In one group of animals, the CXCR4 antagonist peptide T22 was administered intraperitoneally (i.p.) shortly after tumor inoculation and again 24 hours later. In another group of CXCR4-B16-injected mice, T22 was given daily for 14 days.
To determine whether T22 treatment during the last 7 days of the metastasis assay could reduce tumor burden, T22 was given daily either during the entire 2-week treatment period or for just the second week (Table 9).
CXCR4-B16 and pLNCX2-B16 cells in exponential growth phase were harvested by trypsinization and washed twice in PBS before injection. Cell viability was >95% as determined by trypan blue dye exclusion. CXCR4-B16 or pLNCX2-B16 cells (4×10^5 in 200 μl PBS) were then injected into the tail veins of mice. T22 and ALA peptides in sterile PBS were administered via an i.p. route using 4 μg peptide/mouse daily for the indicated duration of treatment as described (Murakami et al., Cancer Res. 62:7328-7334 (2002)). Mice were euthanized after 14 days for gross inspection of lungs and luciferase quantification of metastasis by luciferase activity (Murakami et al., Cancer Res. 62:7328-7334 (2002)). […]

[5] = test system: CXCR4-B16 cells; experiment: growth of CXCR4-B16 cells under low serum conditions in vitro; type: cell-based, murine; conditions: for effect of peptide alone on growth: T22 or ALA alone; for cell count CXCR4-B16 24 h / cell count CXCR4-B16 48 h: low serum (0.5% FCS); for block of growth stimulated by CXCL12: low serum, in the presence of CXCL12
Protocol: (§3) CXCR4- and pLNCX2-B16 cells (2×10^4 cells/well) were cultured in triplicate for 24 hr in 24-well plates containing B16 growth medium (DMEM, 10% FCS). After rinsing the cells in serum-free DMEM, the B16 cells were incubated for 40 hr at 37° C. in DMEM containing low serum (0.5% FCS). At this point, CXCL12 (500 ng/ml) was added to the cells by itself or with either T22 or control ALA peptide at 1 μg/ml for the indicated times. Cells were then harvested at 24 or 48 hr later and counted by a hemacytometer.

[6] = test system: pLNCX2-B16 cells; experiment: growth of pLNCX2-B16 cells under low serum conditions in vitro; type: cell-based, murine; conditions: for cell count pLNCX2-B16 24 h / cell count pLNCX2-B16 48 h: low serum (0.5% FCS); for effect on growth of pLNCX2-B16 cells: under either low or high serum conditions
Protocol: as §3

[7] = test system: pLNCX2-B16 cells; experiment: pulmonary metastasis after i.v. injection of pLNCX2-B16 cells (lung luciferase assay); type: in vivo; conditions: pLNCX2-B16-injected mice
Protocol: as §1
CXCR4- and pLNCX2-B16 cells in exponential growth phase were harvested by trypsinization and washed twice in PBS prior to injection. Cell viability was >95% as determined by trypan blue dye exclusion. […] Tumor growth was monitored three times per week by measurement of two maximum perpendicular tumor diameters. […]
CXCR4-B16 and pLNCX2-B16 cells in exponential growth phase were harvested by trypsinization and washed twice in PBS before injection. Cell viability was >95% as determined by trypan blue dye exclusion. […] Mice were euthanized after 14 days for gross inspection of lungs and luciferase quantification of metastasis by luciferase activity (Murakami et al., Cancer Res. 62:7328-7334 (2002)). […]

[8] = test system: CXCR4-B16 cells; experiment: growth of CXCR4-B16 cells injected into the footpad; type: in vivo, mice; conditions: compared to either PBS or ALA
Protocol: as §2

[9] = peptide 1 μg/ml together with SDF-1 (CXCL12 500 ng/ml)
[10] = treatment alone, CXCL12 500 ng/ml, peptide 1 μg/ml

Row | Substance | block of in vitro chemotaxis to CXCL12 [3] | effect on pulmonary metastasis [4] | Luciferase activity (RLU) [4] [RLU] | Average weight [4] [g] | effect of peptide alone on growth [5] | cell count CXCR4-B16 24 h [5, 9] | cell count CXCR4-B16 48 h [5, 9] | cell count CXCR4-B16 24 h [5, 10] | cell count CXCR4-B16 48 h [5, 10] | block of growth stimulated by CXCL12 [5] | cell count pLNCX2-B16 24 h [6, 9] | cell count pLNCX2-B16 48 h [6, 9] | cell count pLNCX2-B16 24 h [6, 10] | cell count pLNCX2-B16 48 h [6, 10] | effect on growth of pLNCX2-B16 cells [6] | also measured
1 | CCL19: an unrelated chemokine used as control |  |  |  |  |  |  |  |  |  |  |  |  |  |  |  | adherent B16-CXCR4 cells on DMEC (Table 6) [1]: 6.8; Mean adherent cells/field [2]: 17.2 cells/field
2 | H-KWAFRVAYRGIAYRRAR-OH [ALA, reference compound] | no inhibitory effect | no effect | 43928 ± 29729 | 0.88 | did not significantly alter growth | 16.0 ± 1.0 | 33.3 ± 6.7 | 12.0 ± 0.1 | 22.3 ± 1.2 | but not by the control peptide | 10.7 ± 2.9 | 22.7 ± 3.2 | 10.0 ± 1.0 | 20.3 ± 3.5 | did not affect the growth | 
3 | NH2-RRWCYRKCYKGYCYRKCR-COOH (H-RRWCYRKCYKGYCYRKCR-OH; cysteine pairing not given here) [T22] | block specifically | reduced metastasis to levels seen in pLNCX2-B16 injected mice | 1114 ± 956 | 0.55 | did not significantly alter growth | 12.7 ± 2.1 | 20.7 ± 3.0 | 11.0 ± 1.0 | 22.0 ± 1.0 | could be blocked | 12.3 ± 0.6 | 21.7 ± 3.2 | 10.7 ± 1.2 | 21.0 ± 1.0 | did not affect the growth | Average Relative Luciferase Units ([4]; T22 daily 2nd week only): 81981.2 Relative Luciferase Units; Average Relative Luciferase Units ([4]; T22 daily for 2 weeks): 15294.5 Relative Luciferase Units; protection against CXCR4-mediated pulmonary metastasis ([4]; T22 i.p. for the first two days of the 14-day assay): as effective as giving T22 daily for the entire 2-week course; metastatic burden ([4]; T22 treatment during the second week only): same metastatic burden as PBS (mock) treatment; effect on metastasis [7]: did not block metastasis; effect on growth of cells injected into the footpad [8]: no significant effect on the growth
